Reference: ChEMBL document CHEMBL4177690, “(E)-3-(3,4,5-Trimethoxyphenyl)-1-(pyridin-4-yl)prop-2-en-1-one, a heterocyclic chalcone is a potent and selective CYP1A1 inhibitor and cancer chemopreventive agent” (Bioorg Med Chem Lett, 2017)

Columns and labels:
Cytochrome P450 1A2 [1] = biological target: T1, Cytochrome P450 1A2 (Homo sapiens, UniProt P05177); assay: Inhibition of human CYP1A2 expressed in yeast microsomal membranes using 3-cyano-7-ethoxycoumarin as substrate measured after 10 mins by fluorescence assay; type: ADME, cell membranes, Microsomal Membrane
T1 sequence (P05177 whole entry): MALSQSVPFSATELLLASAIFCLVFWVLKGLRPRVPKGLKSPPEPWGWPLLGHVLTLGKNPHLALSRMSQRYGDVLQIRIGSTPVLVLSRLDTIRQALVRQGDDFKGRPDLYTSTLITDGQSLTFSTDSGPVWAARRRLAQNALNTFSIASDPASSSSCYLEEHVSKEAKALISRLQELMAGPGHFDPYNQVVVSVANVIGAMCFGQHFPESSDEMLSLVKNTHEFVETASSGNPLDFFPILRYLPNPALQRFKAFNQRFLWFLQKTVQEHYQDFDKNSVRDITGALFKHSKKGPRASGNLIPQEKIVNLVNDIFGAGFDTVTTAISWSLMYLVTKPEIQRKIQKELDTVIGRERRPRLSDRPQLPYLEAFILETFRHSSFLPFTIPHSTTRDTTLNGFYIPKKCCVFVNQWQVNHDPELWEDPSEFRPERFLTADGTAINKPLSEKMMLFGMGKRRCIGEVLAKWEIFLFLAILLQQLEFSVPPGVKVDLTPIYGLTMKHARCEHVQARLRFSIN

Cytochrome P450 2D6 [2] = biological target: T2, Cytochrome P450 2D6 (Homo sapiens, UniProt P10635); assay: Inhibition of human CYP2D6 expressed in yeast microsomal membranes using 7-ethoxy-methyloxy-3-cyanocoumarin as substrate measured after 10 mins by fluorescence assay; type: ADME, cell membranes, Microsomal Membrane
T2 sequence (P10635 whole entry): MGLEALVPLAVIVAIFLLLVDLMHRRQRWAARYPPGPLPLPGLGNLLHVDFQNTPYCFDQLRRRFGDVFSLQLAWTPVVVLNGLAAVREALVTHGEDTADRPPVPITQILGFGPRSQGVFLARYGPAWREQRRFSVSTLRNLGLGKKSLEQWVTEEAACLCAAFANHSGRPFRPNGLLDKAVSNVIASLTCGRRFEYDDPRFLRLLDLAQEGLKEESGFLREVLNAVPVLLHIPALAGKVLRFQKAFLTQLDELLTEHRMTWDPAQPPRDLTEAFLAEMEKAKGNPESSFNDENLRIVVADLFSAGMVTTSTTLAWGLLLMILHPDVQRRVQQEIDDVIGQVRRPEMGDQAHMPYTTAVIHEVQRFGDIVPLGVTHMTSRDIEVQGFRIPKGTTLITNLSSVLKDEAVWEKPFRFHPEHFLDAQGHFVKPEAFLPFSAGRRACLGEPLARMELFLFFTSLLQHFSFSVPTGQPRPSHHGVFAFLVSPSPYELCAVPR

Cytochrome P450 1A1 [3] = biological target: T3, Cytochrome P450 1A1 (Homo sapiens, UniProt P04798); assay: Inhibition of recombinant human CYP1A1 expressed in HEK293 cells using 7-ethoxyresorufin as substrate pretreated for 30 mins followed by substrate addition measured for 60 mins by fluorescence assay; type: cell-based
T3 sequence (P04798 whole entry): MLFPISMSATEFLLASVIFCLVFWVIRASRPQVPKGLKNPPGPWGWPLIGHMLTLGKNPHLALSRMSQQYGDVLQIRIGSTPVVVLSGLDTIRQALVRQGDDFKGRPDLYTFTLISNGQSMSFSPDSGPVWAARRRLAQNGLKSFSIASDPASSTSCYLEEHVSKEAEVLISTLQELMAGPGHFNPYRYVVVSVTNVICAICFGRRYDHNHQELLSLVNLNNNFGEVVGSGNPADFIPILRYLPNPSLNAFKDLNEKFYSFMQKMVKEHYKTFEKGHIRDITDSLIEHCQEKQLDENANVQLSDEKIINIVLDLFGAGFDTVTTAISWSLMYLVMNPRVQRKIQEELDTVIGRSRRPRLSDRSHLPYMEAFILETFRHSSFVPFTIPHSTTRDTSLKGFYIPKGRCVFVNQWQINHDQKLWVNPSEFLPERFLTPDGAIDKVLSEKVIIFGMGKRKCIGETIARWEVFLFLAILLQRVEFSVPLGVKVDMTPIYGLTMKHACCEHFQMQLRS

Cytochrome P450 2D6 [4] = biological target: T2, Cytochrome P450 2D6; assay: Inhibition of recombinant human CYP2D6 expressed in HEK293 cells using 7-ethoxy-methyloxy-3-cyanocoumarin as substrate pretreated for 30 mins followed by substrate addition measured for 60 mins by fluorescence assay; type: ADME, cell-based
Cytochrome P450 1A1 [5] = biological target: T3, Cytochrome P450 1A1; assay: Inhibition of human CYP1A1 expressed in yeast microsomal membranes using 7-ethoxyresorufin as substrate measured after 10 mins by fluorescence assay; type: cell membranes
Cytochrome P450 2C19 [6] = biological target: T4, Cytochrome P450 2C19 (Homo sapiens, UniProt P33261); assay: Inhibition of recombinant human CYP2C19 expressed in HEK293 cells using 3-cyano-7-ethoxycoumarin as substrate pretreated for 30 mins followed by substrate addition measured for 60 mins by fluorescence assay; type: ADME
T4 sequence (P33261 whole entry): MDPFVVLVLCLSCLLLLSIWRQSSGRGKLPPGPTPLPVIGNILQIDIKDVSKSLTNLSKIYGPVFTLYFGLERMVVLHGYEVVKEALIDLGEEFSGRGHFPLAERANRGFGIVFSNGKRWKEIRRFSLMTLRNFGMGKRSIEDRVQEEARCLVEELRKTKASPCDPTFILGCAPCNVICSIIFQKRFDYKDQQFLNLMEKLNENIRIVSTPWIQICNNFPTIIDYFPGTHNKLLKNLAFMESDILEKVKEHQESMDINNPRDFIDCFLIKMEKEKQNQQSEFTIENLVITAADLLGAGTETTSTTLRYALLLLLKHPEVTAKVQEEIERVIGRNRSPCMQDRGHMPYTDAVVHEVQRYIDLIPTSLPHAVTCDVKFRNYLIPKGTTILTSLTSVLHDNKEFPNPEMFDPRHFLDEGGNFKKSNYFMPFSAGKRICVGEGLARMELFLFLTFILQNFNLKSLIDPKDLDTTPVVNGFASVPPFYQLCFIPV

Cytochrome P450 1A2 [7] = biological target: T1, Cytochrome P450 1A2; assay: Inhibition of recombinant human CYP1A2 expressed in HEK293 cells using 3-cyano-7-ethoxycoumarin as substrate pretreated for 30 mins followed by substrate addition measured for 60 mins by fluorescence assay; type: ADME
Cytochrome P450 2C19 [8] = biological target: T4, Cytochrome P450 2C19; assay: Inhibition of human CYP2C19 expressed in yeast microsomal membranes using 3-cyano-7-ethoxycoumarin as substrate measured after 10 mins by fluorescence assay; type: ADME, cell membranes, Microsomal Membrane
Cytochrome P450 2C9 [9] = biological target: T5, Cytochrome P450 2C9 (Homo sapiens, UniProt P11712); assay: Inhibition of recombinant human CYP2C9 expressed in HEK293 cells using 3-cyano-7-ethoxycoumarin as substrate pretreated for 30 mins followed by substrate addition measured for 60 mins by fluorescence assay; type: ADME
T5 sequence (P11712 whole entry): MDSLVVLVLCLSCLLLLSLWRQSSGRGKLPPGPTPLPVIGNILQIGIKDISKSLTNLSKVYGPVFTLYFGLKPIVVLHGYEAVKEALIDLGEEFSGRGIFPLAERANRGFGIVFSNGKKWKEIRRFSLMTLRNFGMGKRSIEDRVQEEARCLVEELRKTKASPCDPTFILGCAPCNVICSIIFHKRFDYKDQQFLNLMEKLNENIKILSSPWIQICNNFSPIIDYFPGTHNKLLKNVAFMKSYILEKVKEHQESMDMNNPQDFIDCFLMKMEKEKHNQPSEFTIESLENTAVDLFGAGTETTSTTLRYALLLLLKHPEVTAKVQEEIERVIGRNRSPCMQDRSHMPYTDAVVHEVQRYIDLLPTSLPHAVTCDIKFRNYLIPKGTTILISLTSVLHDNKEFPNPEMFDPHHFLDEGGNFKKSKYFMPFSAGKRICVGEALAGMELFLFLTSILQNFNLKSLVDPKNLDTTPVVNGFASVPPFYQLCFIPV

Cytochrome P450 3A4 [10] = biological target: T6, Cytochrome P450 3A4 (Homo sapiens, UniProt P08684); assay: Inhibition of recombinant human CYP3A4 expressed in HEK293 cells using dibenzylfluorescein as substrate pretreated for 30 mins followed by substrate addition measured for 60 mins by fluorescence assay; type: ADME
T6 sequence (P08684 whole entry): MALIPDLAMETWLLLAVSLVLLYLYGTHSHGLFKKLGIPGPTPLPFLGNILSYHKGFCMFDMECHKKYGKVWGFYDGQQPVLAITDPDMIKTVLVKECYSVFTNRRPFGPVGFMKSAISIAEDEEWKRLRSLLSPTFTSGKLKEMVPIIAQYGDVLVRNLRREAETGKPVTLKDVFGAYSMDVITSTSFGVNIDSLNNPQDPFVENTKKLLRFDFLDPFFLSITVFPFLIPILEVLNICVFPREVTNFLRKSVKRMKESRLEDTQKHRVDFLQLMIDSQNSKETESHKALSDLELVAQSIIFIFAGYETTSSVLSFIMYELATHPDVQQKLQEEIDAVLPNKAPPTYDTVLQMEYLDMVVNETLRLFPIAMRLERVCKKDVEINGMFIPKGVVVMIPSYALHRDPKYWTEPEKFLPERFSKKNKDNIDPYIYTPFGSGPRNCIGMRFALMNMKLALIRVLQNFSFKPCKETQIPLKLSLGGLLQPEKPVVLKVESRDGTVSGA

Cytochrome P450 1B1 [11] = biological target: T7, Cytochrome P450 1B1 (Homo sapiens, UniProt Q16678); assay: Inhibition of recombinant human CYP1B1 expressed in HEK293 cells using 7-ethoxyresorufin as substrate pretreated for 30 mins followed by substrate addition measured for 60 mins by fluorescence assay; type: cell-based
T7 sequence (Q16678 whole entry): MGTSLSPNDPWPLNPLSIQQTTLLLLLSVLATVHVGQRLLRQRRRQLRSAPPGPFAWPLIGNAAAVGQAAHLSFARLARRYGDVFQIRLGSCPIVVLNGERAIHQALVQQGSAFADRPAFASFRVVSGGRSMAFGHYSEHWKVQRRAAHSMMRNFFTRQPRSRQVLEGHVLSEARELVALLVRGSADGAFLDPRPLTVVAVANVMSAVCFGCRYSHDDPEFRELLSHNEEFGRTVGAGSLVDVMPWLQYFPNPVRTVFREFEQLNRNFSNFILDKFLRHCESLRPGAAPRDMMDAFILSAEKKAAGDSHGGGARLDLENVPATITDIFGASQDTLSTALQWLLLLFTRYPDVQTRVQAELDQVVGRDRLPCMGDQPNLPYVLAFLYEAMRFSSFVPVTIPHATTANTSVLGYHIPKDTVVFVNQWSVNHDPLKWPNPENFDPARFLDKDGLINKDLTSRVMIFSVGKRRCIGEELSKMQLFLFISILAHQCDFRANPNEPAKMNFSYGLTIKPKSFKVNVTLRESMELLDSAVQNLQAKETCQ

Cytochrome P450 2C9 [12] = biological target: T5, Cytochrome P450 2C9; assay: Inhibition of human CYP2C9 expressed in yeast microsomal membranes using 3-cyano-7-ethoxycoumarin as substrate measured after 10 mins by fluorescence assay; type: ADME, cell membranes, Microsomal Membrane
Cytochrome P450 1B1 [13] = biological target: T7, Cytochrome P450 1B1; assay: Inhibition of human CYP1B1 expressed in yeast microsomal membranes using 7-ethoxyresorufin as substrate measured after 10 mins by fluorescence assay; type: cell membranes
Cytochrome P450 3A4 [14] = biological target: T6, Cytochrome P450 3A4; assay: Inhibition of human CYP3A4 expressed in yeast microsomal membranes using dibenzylfluorescein as substrate measured after 10 mins by fluorescence assay; type: ADME, cell membranes, Microsomal Membrane

IC50 (Cytochrome P450 1A2 [1]) [nM]	IC50 (Cytochrome P450 2D6 [2]) [nM]	IC50 (Cytochrome P450 1A1 [3]) [nM]	IC50 (Cytochrome P450 2D6 [4]) [nM]	IC50 (Cytochrome P450 1A1 [5]) [nM]	IC50 (Cytochrome P450 2C19 [6]) [nM]	IC50 (Cytochrome P450 1A2 [7]) [nM]	IC50 (Cytochrome P450 2C19 [8]) [nM]	IC50 (Cytochrome P450 2C9 [9]) [nM]	IC50 (Cytochrome P450 3A4 [10]) [nM]	IC50 (Cytochrome P450 1B1 [11]) [nM]	IC50 (Cytochrome P450 2C9 [12]) [nM]	IC50 (Cytochrome P450 1B1 [13]) [nM]	IC50 (Cytochrome P450 3A4 [14]) [nM]	SMILES
28	16000	220	> 10000	180	> 10000	28	> 20000	> 10000	> 10000	31	> 20000	41	> 20000	COc1cc(/C=C/C(=O)c2ccncc2)cc(OC)c1
120	8000	420	> 10000	380	> 10000	120	> 20000	> 10000	> 10000	230	> 20000	170	> 20000	COc1ccc(/C=C/C(=O)c2ccncc2)cc1OC
35	18000	550	> 10000	510	> 10000	28	> 20000	> 10000	> 10000	750	> 20000	650	> 20000	O=C(/C=C/c1cccc2ccccc12)c1ccncc1
1500	12000	1120	> 10000	1120	> 10000	1500	> 20000	> 10000	> 10000	3520	> 20000	2110	> 20000	O=C(/C=C/c1ccc2c(c1)OCO2)c1ccncc1
32	11000	610	> 10000	570	> 10000	32	> 20000	> 10000	> 10000	60	> 20000	48	> 20000	COc1ccccc1/C=C/C(=O)c1ccncc1
